Experimental data from patent US8969573B2, “Compounds for the inhibition of cellular proliferation” (President and Fellows of Harvard College, priority 2010, dated 2015).
Like-named read-outs stand apart in the source and are kept apart here.

Tests used:
eIF4E = eIF4E (Homo sapiens, UniProt P06730); assay: NMR binding experiments (titration with protein)
Description: Experiments were carried out with representative compounds to provide an indication of the ability of the compounds of the present invention to bind to eIF4E and therefore act as inhibitors of the binding of eIF4E to eIF4G.

CRL2813 human melanoma = assay: SRB assay (inhibition of cell proliferation); format: cell-based
Text: (§1) A sulfur rhodamine B (SRB) assay was used to determine the extent of inhibition of cell proliferation as a measure of the anti-cancer activity of compounds of the present disclosure. The reagent SRB binds to cellular proteins and absorbs light proportionally to the cellular protein content, which is a surrogate marker for the number of cells. According to aspects of the present disclosure, the assay can be used to with any cancer cell line including breast cancer cell lines, prostate cancer cell lines, melanoma cell lines, lung cancer cell lines or any other cell lines of the cancers described herein.
(§2) The following protocol was used to determine the growth characteristics of certain cell lines CRL2351 human breast cancer and CRL2813 human melanoma from which cell lines having doubling times less than 48 hours were selected for growth inhibition experiments. […] The following materials were used in addition to the cancel cell lines: complete (5% fetal calf serum added) tissue culture media, 96-well tissue culture plates, Sulforhodamine B dye (SRB, 0.57% w/w), […] (TCA, 10%), acetic acid glacial (1%) and 10 mM Tris base. The cells were prepared and plated. Cancer cells were grown to 80% confluency in an incubator. The cells were trypsinized per standard protocol or as needed for each cell line. The trypsin was neutralized, cells dissociated and counted. Each cell line was plated at a density of 500, 1000 and 3000 cells per well (six wells each) in five separate plates. The cells were then returned to the incubator. One plate was then removed each day starting day one after plating. 100 μl of 10% TCA was then added and the cells were fixed at 4° C. until all the cells were fixed. […] The cell growth for vehicle treatment is considered to be 100%. The optical density was then measured and plotted for each starting cell number and cell line against time. The percent cell growth inhibition was calculated as 100 minus the % of control cell growth. The % of control cell growth=((mean OD sample−Mean OD day 0)/(mean OD vehicle−Mean OD day 0))*100.

[1] = system: CRL2351 human breast cancer; assay: SRB assay (inhibition of cell proliferation); format: cell-based; conditions: CRL2351 human breast cancer cells
Text: as §1, §2

eIF4E/eIF4G interaction = eIF4E/eIF4G interaction (Homo sapiens, UniProt P06730); assay: Fluorescent polarization assay; format: binding; conditions: FITC eIF4G peptide and recombinant eIF4E, ratio to Z (4EGI-1 = 1)
Description: The difference between the two measurement yields net polarization which is considered full signal of the assay (100% control). […] The activity of compound at each concentration is determined by comparing the fluorescent polarization (FP) signal in the presence of compound to the control (no compound) value. The percent inhibition is =100-((FP compound/FP control)*100).

[2] = Homo sapiens, CRL2813, CRL2813 human melanoma cells, summary table, read-out: IC50 [μM} CRL2813
[3] = Homo sapiens, summary table, read-out: IC50 [μM} CRL2351
[4] = Homo sapiens, CRL2813, CRL2813 human melanoma cells, Tables 1, 4, 5, read-out: SRB-IC50 (μM) 2813
[5] = Homo sapiens, Tables 1, 4, 5, read-out: SRB-IC50 (μM) 2351
[6] = CRL2813 human melanoma cells, summary table, read-out: IC50 [μM} CRL2813
[7] = summary table, read-out: IC50 [μM} CRL2351

Chain of eIF4E (P06730 27-217 limits assumed): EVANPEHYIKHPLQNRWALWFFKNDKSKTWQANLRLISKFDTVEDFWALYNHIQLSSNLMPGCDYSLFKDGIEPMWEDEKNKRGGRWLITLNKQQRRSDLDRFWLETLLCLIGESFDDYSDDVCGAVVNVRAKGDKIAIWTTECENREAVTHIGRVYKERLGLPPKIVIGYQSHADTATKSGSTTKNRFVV
Chain of eIF4E/eIF4G interaction (P06730 whole entry): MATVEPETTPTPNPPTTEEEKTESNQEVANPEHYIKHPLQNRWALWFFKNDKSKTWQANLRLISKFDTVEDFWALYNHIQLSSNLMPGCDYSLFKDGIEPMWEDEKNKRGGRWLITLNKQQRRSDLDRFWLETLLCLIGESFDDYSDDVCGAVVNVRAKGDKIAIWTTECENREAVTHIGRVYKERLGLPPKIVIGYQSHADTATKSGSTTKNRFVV

SMILES | IC50 (eIF4E) [µM] | IC50 (CRL2813 human melanoma; [2]) [µM] | IC50 [1, 3] [µM] | Fp (ratio to Z) (eIF4E/eIF4G interaction) | IC50 (CRL2813 human melanoma; [4]) [µM] | IC50 [1, 5] [µM] | IC50 (CRL2813 human melanoma; [6]) [µM] | IC50 [1, 7] [µM]
O=C(O)[C@H](Cc1ccccc1[N+](=O)[O-])Nc1nc(-c2ccc(Cl)c(Cl)c2)cs1 [KY-549] | ~7 | – | – | – | – | – | – | –
O=C(O)C(Cc1ccc(O)cc1)=NNc1nc(-c2cccc([N+](=O)[O-])c2)cs1 [KY-A6] | ~5 | – | – | – | – | – | – | –
COc1ccc(-c2nc(NN=C(Cc3ccccc3[N+](=O)[O-])C(=O)O)sc2-c2ccc(-n3cc(CO)nn3)cc2)cc1 [KY-383, 2-{[5-[4-(4-hydroxymethyl-[1,2,3]triazol-1-yl)-phenyl]-4-(4-methoxy-phenyl)-thiazol-2-yl]-hydrazono}-3-(2-nitro-phenyl)-propionic acid] | ~3 | 13 ± 3.6 | > 20 | 2.3 | – | – | – | –
O=C(O)C(Cc1ccccc1[N+](=O)[O-])NNc1nc(-c2ccc(Cl)c(Cl)c2)cs1 (centres unmarked) [KY-720] | ~4 | – | – | – | – | – | – | –
O=C(O)/C(Cc1ccccc1[N+](=O)[O-])=N/Nc1nc(-c2ccc(OC(F)(F)F)cc2)cs1 [KY-627S] | – | > 20 | > 20 | 0.65 | – | – | – | –
[N-]=[N+]=NCCCOc1ccccc1-c1csc(N/N=C(/Cc2ccccc2[N+](=O)[O-])C(=O)O)n1 [KH-170] | – | 14.5 | 0.8 | 0.92 | 16.5 | 0.8 | – | –
[N-]=[N+]=NCCCCOc1ccc(-c2csc(NN=C(Cc3ccccc3[N+](=O)[O-])C(=O)O)n2)cc1 [KH-113s] | – | 12.6 | 12 | 1.05 | 12.5 | 11 | – | –
Cc1ccc(-c2nc(NN=C(Cc3ccccc3[N+](=O)[O-])C(=O)O)sc2-c2ccc(Cl)cc2)cc1 [KY-351PR] | – | 3 | 2.5 | 1.1 | – | – | – | –
COc1ccc(-c2nc(NN=C(Cc3ccccc3[N+](=O)[O-])C(=O)O)sc2-c2ccc(Cl)c(Cl)c2)cc1 [KY-371A11-B1] | – | 3 ± 0.5 | 16 ± 4.9 | 2.4 | – | – | – | –
COc1ccc(-c2cn(-c3ccc(-c4sc(NN=C(Cc5ccccc5[N+](=O)[O-])C(=O)O)nc4-c4ccc(OC)cc4)cc3)nn2)cc1 [KY-445] | – | 13 ± 0.82 | > 20 | 1 | – | – | – | –
[N-]=[N+]=NC/C(=N\Nc1nc(-c2ccc(Cl)c(Cl)c2)cs1)C(=O)O [KY-757-p, (E)-3-azido-2-(2-(4-(3,4-dichlorophenyl)thiazol-2-yl)hydrazono) propanoic acid] | – | > 20 | > 20 | 1 | – | – | – | –
O=C(O)/C(=N\Nc1nc(-c2ccc(Cl)c(Cl)c2)cs1)c1ccccc1[N+](=O)[O-] [KY-782-Z, (Z)-2-(2-(4-(3,4-dichlorophenyl)thiazol-2-yl)hydrazono)-2-(2-nitrophenyl)acetic acid] | – | – | 13 | 0.83 | – | – | 10 | –
COC(=O)C1CN(c2nc(-c3ccc(Cl)c(Cl)c3)cs2)CCN1c1ccccc1[N+](=O)[O-] (centres unmarked) [RYF-273] | – | 3.5 | 0.54 | 0.55 | – | – | – | –
COc1ccc(-c2sc(N/N=C(\Cc3ccccc3[N+](=O)[O-])C(=O)O)nc2-c2ccc(SC)cc2)cc1 [KY-611-pri-S] | – | 6.2 | 15.5 | 0.62 | – | – | – | –
COc1ccc(-c2nc(N/N=C(\Cc3ccccc3[N+](=O)[O-])C(=O)O)sc2-c2ccc(I)cc2)cc1 [KY-613S] | – | 2.7 | 9.5 | 1.1 | – | – | – | –
Cc1ccc(-c2nc(NN=C(Cc3ccccc3[N+](=O)[O-])C(=O)O)sc2-c2ccc(Cl)c(Cl)c2)cc1 [KY-365A22-B3] | – | 3.3 | 3.2 | 0.85 | – | – | – | –
O=C(O)C(Cc1ccccc1[N+](=O)[O-])=NNc1nc(-c2ccccc2)c(-c2ccc(Cl)cc2)s1 [KY-349PR] | – | > 20 | > 20 | 1 | – | – | – | –
[N-]=[N+]=NCCOc1ccc(-c2csc(N/N=C(/Cc3ccccc3[N+](=O)[O-])C(=O)O)n2)cc1 [KH-166] | – | 9 | 5 | 0.80 | 9 | 5 | – | –
COc1ccc(-c2nc(N/N=C(\Cc3ccccc3[N+](=O)[O-])C(=O)O)sc2-c2ccc(-c3ccccc3)cc2)cc1 [KY-435-S] | – | – | – | 2 | – | – | < 0.54 | < 0.54
COc1ccc(-c2nc(NN=C(Cc3ccccc3[N+](=O)[O-])C(=O)O)sc2-c2ccc(OC)cc2)cc1 [KY-323B] | – | – | – | 0.6 | – | – | 7 ± 2.6 | 20 ± 3.7
COc1ccc(-c2nc(NN=C(Cc3ccccc3[N+](=O)[O-])C(=O)O)sc2-c2ccc(-n3cc(-c4ccc(N)cc4)nn3)cc2)cc1 [KY-449] | – | 16 ± 1.8 | 17 | 2.5 | – | – | – | –
COc1ccc(-c2nc(N/N=C(/Cc3ccccc3[N+](=O)[O-])C(=O)O)sc2-c2cccc(-n3cc(CO)nn3)c2)cc1 [KY-467S] | – | > 20 | > 20 | 0.85 | – | – | – | –
Br.CCN(CC)c1ccc(-c2csc(N/N=C(\Cc3ccccc3[N+](=O)[O-])C(=O)O)n2)cc1 [KY-615S] | – | 12.5 | – | 4 | – | – | – | > 20
COCc1cn(-c2ccc(-c3sc(NN=C(Cc4ccccc4[N+](=O)[O-])C(=O)O)nc3-c3ccc(OC)cc3)cc2)nn1 [KY-443A16-19] | – | 14 ± 0.73 | > 20 | 1 | – | – | – | –
[N-]=[N+]=NCCCOc1ccc(-c2csc(N/N=C(/Cc3ccccc3[N+](=O)[O-])C(=O)O)n2)cc1 [KH-167f] | – | 18.6 | – | 1.04 | 18.6 | – | – | > 20
CCOc1ccc(-c2nc(N/N=C(/Cc3ccccc3[N+](=O)[O-])C(=O)O)sc2-c2ccc(OC)cc2)cc1 [KY-576S] | – | – | – | 0.82 | – | – | 12.8 | > 20
